Experimental data taken from patent publication US20240109853A1 (Shanghai Yao Yuan Biotechnology Co., Ltd., priority 2020, published 2024).

How the values were obtained:
[1] = target: ALPK1 (Homo sapiens (Human), UniProt Q96QP1); assay: ALPK1 in vitro kinase assay (HTRF of TIFA phosphorylation); assay type: biochemical
[2] = tested on: ALPK1-dependent NFκB reporter gene activation in HEK293 cells stably expressing an NF-kB reporter (G9 cells); assay: NFκB gene reporter alkaline phosphatase assay; assay type: cell-based; settings: Homo sapiens, HEK293; read-out: NFkB assay IC50
Summary of the method: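 Using pNPP substrate, NF-kB reporter activity in stably transfected HEK293 (G9) cells is determined following 30 min compound pretreatment and stimulation with D-glycero-D-manno-6-fluoro-heptose-1β-S-ADP. Logistic curve fitting yields IC50.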

Sequence of ALPK1 (Q96QP1 whole entry): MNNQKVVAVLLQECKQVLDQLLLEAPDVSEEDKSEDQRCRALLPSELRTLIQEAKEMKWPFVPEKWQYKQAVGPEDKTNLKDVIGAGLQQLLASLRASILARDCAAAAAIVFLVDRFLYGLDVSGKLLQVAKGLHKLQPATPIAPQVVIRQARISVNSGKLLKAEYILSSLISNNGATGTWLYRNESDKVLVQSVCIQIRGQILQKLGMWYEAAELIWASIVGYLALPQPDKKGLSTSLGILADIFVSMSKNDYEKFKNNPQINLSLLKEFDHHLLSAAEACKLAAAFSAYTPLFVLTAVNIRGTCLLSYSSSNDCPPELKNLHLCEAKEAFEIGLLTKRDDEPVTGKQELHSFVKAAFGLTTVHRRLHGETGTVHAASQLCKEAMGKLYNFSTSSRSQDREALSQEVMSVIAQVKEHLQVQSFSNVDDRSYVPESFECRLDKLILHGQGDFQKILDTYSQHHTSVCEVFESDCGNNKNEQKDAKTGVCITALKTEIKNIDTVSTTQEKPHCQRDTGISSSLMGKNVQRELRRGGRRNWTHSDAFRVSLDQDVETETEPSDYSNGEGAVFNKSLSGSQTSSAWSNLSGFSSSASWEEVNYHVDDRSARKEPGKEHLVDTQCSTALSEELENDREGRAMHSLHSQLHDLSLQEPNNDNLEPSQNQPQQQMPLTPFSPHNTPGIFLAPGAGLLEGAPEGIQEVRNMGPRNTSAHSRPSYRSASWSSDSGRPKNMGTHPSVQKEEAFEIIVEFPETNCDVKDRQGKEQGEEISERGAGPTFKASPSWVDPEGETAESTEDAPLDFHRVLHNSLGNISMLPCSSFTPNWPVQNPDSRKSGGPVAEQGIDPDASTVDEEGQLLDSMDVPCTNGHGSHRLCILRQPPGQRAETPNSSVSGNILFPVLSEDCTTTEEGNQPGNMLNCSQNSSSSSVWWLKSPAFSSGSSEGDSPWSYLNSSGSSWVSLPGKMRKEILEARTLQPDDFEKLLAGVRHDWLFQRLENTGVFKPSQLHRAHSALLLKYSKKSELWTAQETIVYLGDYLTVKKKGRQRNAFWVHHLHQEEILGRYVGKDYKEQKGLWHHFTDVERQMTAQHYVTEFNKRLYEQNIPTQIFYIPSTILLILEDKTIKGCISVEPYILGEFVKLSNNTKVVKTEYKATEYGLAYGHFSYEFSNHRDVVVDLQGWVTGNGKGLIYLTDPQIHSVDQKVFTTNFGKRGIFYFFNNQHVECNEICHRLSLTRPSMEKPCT

| SMILES | IC50 [1] | IC50 [2] |
| --- | --- | --- |
| C#C[C@](C)(c1ccc(Br)cc1)c1csc(NC(=O)NCCO)n1 [Example A161, (R)-1-(4-(2-(4-bromophenyl)but-3-yn-2-yl)thiazol-2-yl)-3-(2-hydroxyethyl)urea] | 68 nM | 550 nM |
| C#CC(C)(c1ccc(Br)cc1)c1csc(NC(=O)N2CC(c3ccc(N4CCNCC4)cc3)C2)n1 (stereo not shown) [Example A237, N-(4-(2-(4-bromophenyl)but-3-yn-2-yl)thiazol-2-yl)-3-(4-(piperazin-1-yl)phenyl)azetidine-1-carboxamide] | 7 nM | 610 nM |
| COc1ccc(C(C)(C)c2csc(NC(=O)NC(C)c3cc(F)c(N4CCNCC4)cc3F)n2)cc1 (stereo not shown) [Example A002, 1-(1-(2,5-difluoro-4-(piperazin-1-yl)phenyl)ethyl)-3-(4-(2-(4-methoxyphenyl)propan-2-yl)thiazol-2-yl)urea] | 63 nM | 700 nM |
| CC(C)(c1ccc(Br)cc1)c1csc(NC(=O)NCCCN2CCC(O)C2)n1 (stereo not shown) [Example A129, 1-(4-(2-(4-bromophenyl)propan-2-yl)thiazol-2-yl)-3-(3-(3-hydroxypyrrolidin-1-yl)propyl)urea] | 40 nM | 510 nM |
| C#C[C@](C)(c1ccc(Cl)cc1)c1csc(NC(=O)NC[C@H](O)CO)n1 [Example A302, 1-(4-(2-(4-chlorophenyl)but-3-yn-2-yl)thiazol-2-yl)-3-((S)-2,3-dihydroxypropyl)urea] | 417 nM | 2040 nM |
| C#CC(C)(c1ccc(Cl)cc1)c1nc(NC(=O)NCCO)sc1F (stereo not shown) [Example A279, 1-(4-(2-(4-chlorophenyl)but-3-yn-2-yl)-5-fluorothiazol-2-yl)-3-(2-hydroxyethyl)urea] | 222 nM | 4230 nM |
| CC(C)(c1ccc(Br)cc1)c1csc(NC(=O)NC(CO)c2ccc(N3CCNCC3)cc2)n1 (stereo not shown) [Example A101, 1-(4-(2-(4-bromophenyl)propan-2-yl)thiazol-2-yl)-3-(2-hydroxy-1-(4-(piperazin-1-yl)phenyl)ethyl)urea] | 50 nM | 1650 nM |
| CC(C)(c1ccc(Br)cc1)c1csc(NC(=O)NCc2ccnc(N3CCNCC3)c2F)n1 [Example A207, 1-(4-(2-(4-bromophenyl)propan-2-yl)thiazol-2-yl)-3-((3-fluoro-2-(piperazin-1-yl)pyridin-4-yl)methyl)urea] | 99 nM | 2180 nM |
| COc1ccc(C(C)(C)c2csc(NC(=O)NCCCCN3CCC(N)C3)n2)cc1 (stereo not shown) [Example A077, 1-(4-(3-aminopyrrolidin-1-yl)butyl)-3-(4-(2-(4-methoxyphenyl)propan-2-yl)thiazol-2-yl)urea] | 180 nM | 2970 nM |
| CCCN1CCC(NC(=O)c2ccc(CNC(=O)Nc3nc(C(C)(C)c4ccc(OC)cc4)cs3)cn2)CC1 [Example A115, 5-((3-(4-(2-(4-methoxyphenyl)propan-2-yl)thiazol-2-yl)ureido)methyl)-N-(1-propylpiperidin-4-yl)picolinamide] | 19 nM | 830 nM |
| NC1CCN(c2ccc(CNC(=O)Nc3nc(C4(c5ccc(Br)cc5)CCCC4)cs3)cc2)CC1 [Example A191, 1-(4-(4-aminopiperidin-1-yl)benzyl)-3-(4-(1-(4-bromophenyl)cyclopent-yl)thiazol-2-yl)urea] | 80 nM | 6910 nM |
| CC(C)(c1ccc(Br)cc1)c1csc(NC(=O)NCCCN2CCOCC2)n1 [Example A127, 1-(4-(2-(4-bromophenyl)propan-2-yl)thiazol-2-yl)-3-(3-morpholinopropyl)urea] | 113 nM | 940 nM |
| C#C[C@](C)(c1ccc(Br)cc1)c1csc(NC(=O)NCC(O)CO)n1 (stereo in doubt) [Example A277, 1-(4-(2-(4-bromophenyl)but-3-yn-2-yl)thiazol-2-yl)-3-(2,3-dihydroxypropyl)urea] | 2670 nM | 1230 nM |
| C#CC(C)(c1ccc(Br)cc1)c1csc(NC(N)=O)n1 (stereo not shown) [Example A162, 1-(4-(2-(4-bromophenyl)but-3-yn-2-yl)thiazol-2-yl)urea] | 38 nM | 180 nM |
| CC(C)(c1ccc(Br)cc1)c1csc(NC(=O)NCc2ccnc(N3CCNCC3)n2)n1 [Example A090, 1-(4-(2-(4-bromophenyl)propan-2-yl)thiazol-2-yl)-3-((2-(piperazin-1-yl)pyrimidin-4-yl)methyl)urea] | 178 nM | 1110 nM |
| CC(C)(c1ccc(Br)cc1)c1csc(NC(=O)NCc2ccc(N3CCNC(=O)C3)cc2)n1 [Example A195, 1-(4-(2-(4-bromophenyl)propan-2-yl)thiazol-2-yl)-3-(4-(3-oxopiperazin-1-yl)benzyl)urea] | 132 nM | 9940 nM |
| C#CC(C)(c1ccc(Cl)cc1)c1csc(NC(=O)NCCC#N)n1 (stereo not shown) [Example A024, 1-(4-(2-(4-chlorophenyl)but-3-yn-2-yl)thiazol-2-yl)-3-(2-cyanoethyl)urea] | 13 nM | 1250 nM |
| CC(C)Oc1cc(CNC(=O)Nc2nc(C(C)(C)c3ccc(Br)cc3)cs2)ccc1N1CCNCC1 [Example A221, 1-(4-(2-(4-bromophenyl)propan-2-yl)thiazol-2-yl)-3-(3-isopropoxy-4-(piperazin-1-yl)benzyl)urea] | 144 nM | 2380 nM |

| SMILES | IC50 [1] | IC50 [2] |
| --- | --- | --- |
| C#CC(C)(c1ccc(Cl)cc1)c1csc(NC(=O)NCC(C)(C)O)n1 (stereo not shown) [Example A268, 1-(4-(2-(4-chlorophenyl)but-3-yn-2-yl)thiazol-2-yl)-3-(2-hydroxy-2-methylpropyl)urea] | 218 nM | 1310 nM |
| Cc1nc(N2CCNCC2)ncc1CNC(=O)Nc1nc(C(C)(C)c2ccc(Br)cc2)cs1 [Example A089, 1-(4-(2-(4-bromophenyl)propan-2-yl)thiazol-2-yl)-3-((4-methyl-2-(piperazin-1-yl)pyrimidin-5-yl)methyl)urea] | 26 nM | 1190 nM |
| COc1ccc(C(C)(C)c2csc(NC(=O)NCc3ccc(N4CC5CC4CN5)c(C(N)=O)c3)n2)cc1 (stereo not shown) [Example A064, 2-(2,5-diazabicyclo[2.2.1]heptan-2-yl)-5-((3-(4-(2-(4-methoxyphenyl)propan-2-yl)thiazol-2-yl)ureido)methyl)benza-mide] | 41 nM | 19700 nM |
| CC(C)(c1ccc(Br)cc1)c1csc(NC(=O)NCCN2CCNCC2)n1 [Example A177, 1-(4-(2-(4-bromophenyl)propan-2-yl)thiazol-2-yl)-3-(2-(piperazin-1-yl)ethyl)urea] | 249 nM | 1660 nM |
| C#CC(C)(c1ccc(OC)cc1)c1csc(NC(N)=O)n1 (stereo not shown) [Example A171, 1-(4-(2-(4-methoxyphenyl)but-3-yn-2-yl)thiazol-2-yl)urea] | 16 nM | 730 nM |
| CC(C)(c1ccc(Br)cc1)c1csc(NC(=O)NCc2ccc(N3CCNCC3)c(Cl)c2)n1 [Example A219, 1-(4-(2-(4-bromophenyl)propan-2-yl)thiazol-2-yl)-3-(3-chloro-4-(piperazin-1-yl)benzyl)urea] | 46 nM | 2730 nM |
| CC(C)(c1ccc(Br)cc1)c1csc(NC(=O)NCc2ccc(C(N)=O)cc2)n1 [Example A008, 4-((3-(4-(2-(4-bromophenyl)propan-2-yl)thiazol-2-yl)ureido)methyl)benz-mide] | 8 nM | 700 nM |
| COc1ccc(C(C)(C)c2csc(NC(=O)NCc3cnc(N4CCC(N(C)C)C4)nc3)n2)cc1 (stereo not shown) [Example A012, 1-((2-(3-(dimethylamino)pyrrolidin-1-yl)pyrimidin-5-yl)methyl)-3-(4-(2-(4-methoxyphenyl)propan-2-yl)thiazol-2-yl)urea] | 40 nM | 2210 nM |
| COc1ccc(C(C)(C)c2csc(NC(=O)NCCc3ccncc3)n2)cc1 [Example A124, 1-(4-(2-(4-methoxyphenyl)propan-2-yl)thiazol-2-yl)-3-(2-(pyridin-4-yl)ethyl)urea] | 165 nM | 1050 nM |
| COc1ccc(C(C)(C)c2csc(NC(=O)NCCS(C)(=O)=O)n2)cc1 [Example A013, 1-(4-(2-(4-methoxyphenyl)propan-2-yl)thiazol-2-yl)-3-(2-(methylsulfonyl)ethyl)urea] | 316 nM | 2970 nM |
| C#CC(C)(c1ccc(Cl)cc1)c1csc(NC(=O)NCCO)n1 (stereo not shown) [Example A174, 1-(4-(2-(4-chlorophenyl)but-3-yn-2-yl)thiazol-2-yl)-3-(2-hydroxyethyl)urea] | 34 nM | 310 nM |
| C#CC(C)(c1ccc(Br)cc1)c1csc(NC(=O)NCC2(O)CCNCC2)n1 (stereo not shown) [Example A238, 1-(4-(2-(4-bromophenyl)but-3-yn-2-yl)thiazol-2-yl)-3-((4-hydroxypiperidin-4-yl)methyl)urea] | 19 nM | 27000 nM |
| C#C[C@](C)(c1ccc(Cl)cc1)c1csc(NC(=O)NC(C)(C)CO)n1 (stereo in doubt) [Example A293, 1-(4-(2-(4-chlorophenyl)but-3-yn-2-yl)thiazol-2-yl)-3-(1-hydroxy-2-methylpropan-2-yl)urea] | 9360 nM | 8110 nM |
| COc1ccc(C(C)(C)c2csc(NC(=O)NCc3cc(F)c(N4CC5CC(C4)N5)c(F)c3)n2)cc1 [Example A232] | 88 nM | 590 nM |
| COc1ccc(C(C)(C)c2csc(NC(=O)NCCF)n2)cc1 [Example A021, 1-(2-fluoroethyl)-3-(4-(2-(4-methoxyphenyl)propan-2-yl)thiazol-2-yl)urea] | 104 nM | 1390 nM |
| C#C[C@@](C)(c1ccc(Cl)cc1)c1csc(NC(=O)NC(CO)CO)n1 (stereo in doubt) [Example A298, 1-(4-(2-(4-chlorophenyl)but-3-yn-2-yl)thiazol-2-yl)-3-(1,3-dihydroxypropan-2-yl)urea] | 246 nM | 1150 nM |
| C#C[C@@](C)(c1ccc(OC)cc1)c1csc(NC(=O)NCCO)n1 [Example A170, (S)-1-(2-hydroxyethyl)-3-(4-(2-(4-methoxyphenyl)but-3-yn-2-yl)thiazol-2-yl)urea] | 8 nM | 460 nM |
